Assay results reported in ChEMBL document CHEMBL2095176, “GSK Tuberculosis Screening Data”.
Converted amounts (≈) assume the structure as drawn.

Test system: Mycobacterium tuberculosis variant bovis BCG
Assay: microbe, parasite or virus in culture
Assay type: functional

| Compound | MIC90 |
| --- | --- |
| Cc1cc(C(=O)Nc2nc(-c3ccccn3)cs2)no1 | 4.6 µM (≈ 1.32 µg/mL) |
| CN(C)CCCC(=O)Nc1[nH]nc2cnc(-c3cncc(-c4ccccc4)c3)cc12 | 8.4 µM (≈ 3.36 µg/mL) |
| c1ccc(-c2nnc(Sc3ccnc(N4CCN(c5ccncc5)CC4)n3)n2CCCN2CCOCC2)cc1 | 6.3 µM (≈ 3.43 µg/mL) |
| COCc1nc(N2CCCNCC2)c2c(C)nn(-c3cccc(Cl)c3)c2n1 | 0.4 µM (≈ 0.155 µg/mL) |
| C=CCc1cc(C(=O)NC2CCC(C(C)(C)C)CC2)ccc1OC (configuration not stated) | 8.1 µM (≈ 2.67 µg/mL) |
| c1ccc2c(Cc3nnc(Sc4ccnc(N5CCN(c6ccncc6)CC5)n4)n3CCN3CCOCC3)c[nH]c2c1 | 2.8 µM (≈ 1.63 µg/mL) |
| Oc1ccc(CCNc2nc(NCc3cccc4ccccc34)nc(NC3CCNCC3)n2)cc1 | 10 µM (≈ 4.7 µg/mL) |
| Br.CCc1ccccc1OCCCON1C(=N)N=C(N)NC1(C)C | 2.8 µM |
| CCCCNC(=O)c1cccc(-c2ccc(OCc3ccccc3)cc2)c1 | 9.9 µM (≈ 3.56 µg/mL) |
| COc1ccc(-n2ncc3c(N4CCNCC4)nc(C4CC4)nc32)cc1 | 5.6 µM (≈ 1.96 µg/mL) |
| C[C@H]1CN(Cc2cccc(-c3cc(CNC(=O)c4ccc(CC5CCNCC5)cc4)ccc3F)c2)CCN1 | 4.7 µM (≈ 2.42 µg/mL) |
| CCN(Cc1ccc(Cl)s1)C(=O)CSc1nc(NC)c2ccccc2n1 | 9.1 µM (≈ 3.7 µg/mL) |
| Cc1ccc2nc(C)c(C(=O)NCc3cccs3)n2c1 | 0.5 µM (≈ 0.143 µg/mL) |
| Cc1cc(C)c2nc(N3CCN(C)CC3)cc(C)c2c1 | 8.9 µM (≈ 2.4 µg/mL) |
| O=C(COc1ccc(-c2ccccc2)cc1)NNC(=O)c1ccncc1 | 5.7 µM (≈ 1.98 µg/mL) |
| COc1ccc(CCNc2cc(-c3ccccc3)nc3ncnn23)cc1 | 1 µM (≈ 0.345 µg/mL) |
| CCc1c(C)nc(-n2nc(C)cc2NC(=O)COc2ccccc2F)[nH]c1=O | 2.8 µM (≈ 1.08 µg/mL) |
| COCc1nc(N2CCNCC2)c2c(C)nn(-c3cccc(Cl)c3)c2n1 | 1.9 µM (≈ 0.708 µg/mL) |
| COc1cc(C(C)(C)C)ccc1C(=O)Nc1cccc2c1CCC2N (configuration not stated) | 2.7 µM (≈ 0.914 µg/mL) |
| Nc1nc2cc(-c3cncc(Oc4ccc(F)cc4)c3)ccc2[nH]1.O=C(O)C(F)(F)F.O=C(O)C(F)(F)F | 6.2 µM |
| O=C(C=Cc1cccs1)N1CCN(Cc2ccc3c(c2)OCO3)CC1 | 1.7 µM (≈ 0.606 µg/mL) |
| CC(C)C(NC(=O)CCc1nc2ccccc2oc1=O)c1nc2ccccc2[nH]1 (configuration not stated) | 4.4 µM (≈ 1.72 µg/mL) |
| Cc1noc(C)c1COc1ccc(C(=O)N2CCCCC2c2nc3ccccc3s2)cc1 (configuration not stated) | 6.4 µM (≈ 2.86 µg/mL) |
| Cc1cc(C(=O)Nc2nc(-c3ccccn3)nc3ccsc23)no1 | 2.8 µM (≈ 0.945 µg/mL) |
| CC(=O)CCN1C(=O)C(=O)c2cc(Br)ccc21 | 7.9 µM (≈ 2.34 µg/mL) |

| Compound | MIC90 |
| --- | --- |
| CCOc1ccc(C(=O)Nc2cc(Cl)c3c(c2)CNCC3)cc1C(C)=O | 9.2 µM (≈ 3.43 µg/mL) |
| Cc1cc(C)cc(Oc2ncnc(N3CCCC3CN)c2C)c1 (configuration not stated) | 7.5 µM (≈ 2.34 µg/mL) |
| Cc1ccc2[nH]c(C3CCCNC3)c(-c3ccncc3)c2c1 (configuration not stated) | 8.9 µM (≈ 2.59 µg/mL) |
| O=C(Nc1nc(-c2ccccn2)cs1)c1cccc(S(=O)(=O)N2CCCCC2)c1 | 5.2 µM (≈ 2.23 µg/mL) |
| CN(C)CCN(Cc1ccc(-c2cccc(CN)c2)cc1)C(=O)CCC1CCCC1 | 9.9 µM (≈ 4.04 µg/mL) |
| Cc1cc(S(=O)(=O)c2ccccc2)cc2c(Nc3ccc(N4CCOCC4)cc3)c(C(N)=O)cnc12 | 8.8 µM (≈ 4.42 µg/mL) |
| O=C(/C=C/c1ccccc1)N1CCN(Cc2cccc(OCc3ccccc3)c2)CC1 | 8.3 µM (≈ 3.42 µg/mL) |
| Cn1c(SCC(=O)Nc2sccc2C#N)nnc1-c1ccc(Cl)cc1 | 2.4 µM (≈ 0.936 µg/mL) |
| CC(C)c1ccc(C(=O)Nc2ccc3c(c2)CN(C)CC3)cc1C(F)(F)F | 6.8 µM (≈ 2.56 µg/mL) |
| O=C(NNC(=O)C1CC1C(=O)O)c1ccncc1 (configuration not stated) | 6.8 µM (≈ 1.69 µg/mL) |
| c1coc(-c2nnc(Sc3ccnc(N4CCN(c5ccncc5)CC4)n3)n2CCCN2CCOCC2)c1 | 2.8 µM (≈ 1.49 µg/mL) |
| Cc1occc1C(=O)Nc1nc(-c2ccccn2)nc2ccsc12 | 1.1 µM (≈ 0.37 µg/mL) |
| COc1ccc(-c2ccc(Nc3cccc(S(=O)(=O)CCNCC(C)(C)C)c3)nc2)cn1 | 2.9 µM (≈ 1.32 µg/mL) |
| COc1ccccc1NC(=O)CN(Cc1ccco1)C(=O)c1cccc(-n2cnnn2)c1 | 7.7 µM (≈ 3.33 µg/mL) |
| COc1ccc2cnnc(SCC(=O)NNC(=O)c3cccs3)c2c1OC | 3 µM (≈ 1.21 µg/mL) |
| COc1ccc(-c2ccc(Nc3cccc(S(=O)(=O)CCNC4CCC4)c3)nc2)cn1 | 1.6 µM (≈ 0.702 µg/mL) |
| O=C(Nc1nc(-c2ccccn2)cs1)C1COc2ccccc2O1 (configuration not stated) | 3.7 µM (≈ 1.26 µg/mL) |
| Cc1onc(-c2ccccc2)c1C(=O)Nc1nc(-c2ccccn2)cs1 | 4.3 µM (≈ 1.56 µg/mL) |
| Fc1cccc(Sc2nccc(N3CCNCC3)n2)c1 | 6 µM (≈ 1.74 µg/mL) |
| COc1ccc(-c2cccc(NC(=O)NC3CCCCC3)c2)cn1 | 8.8 µM (≈ 2.86 µg/mL) |
| CC1=C(C(=O)Nc2ccc3[nH]ncc3c2)C(c2cc(C#Cc3ccccc3)cs2)NC(=O)N1 (configuration not stated) | 2 µM (≈ 0.907 µg/mL) |
| COc1ccc(NC(=O)c2ccc(CN3CCCCC3)o2)c(OC)c1 | 7.2 µM (≈ 2.48 µg/mL) |
| Cc1cc(NCCc2ccccc2)nc(NC(=N)Nc2ccc(Cl)cc2)n1 | 2 µM (≈ 0.762 µg/mL) |
| Cc1nc2ccccn2c1C(=O)NCc1cccs1 | 3.9 µM (≈ 1.06 µg/mL) |
| Cc1ccc(-c2nnc(NC(=O)c3ccc(Cl)s3)o2)c(C)c1 | 4 µM (≈ 1.34 µg/mL) |

| Compound | MIC90 |
| --- | --- |
| O=C(NC(=Cc1ccc(-c2cccc(C(F)(F)F)c2)o1)C(=O)N1CCOCC1)c1ccccc1 | 6.8 µM (≈ 3.2 µg/mL) |
| NC(=O)c1csc(-c2cccc(OCCNCCc3cccc(F)c3)c2)n1 | 2 µM (≈ 0.771 µg/mL) |
| c1csc(Cc2nn3c(-c4n[nH]c5c4CCC5)nnc3s2)c1 | 3.2 µM (≈ 1.05 µg/mL) |
| O=C(NNC(=O)c1cccs1)c1cnn(-c2ccccc2)n1 | 4.5 µM (≈ 1.41 µg/mL) |
| COc1cc(C(F)(F)F)nc2ccc(C)c(N)c12 | 9.7 µM (≈ 2.49 µg/mL) |
| C=CCNCCS(=O)(=O)c1cccc(Nc2ccc(-c3ccc(OC)nc3)cn2)c1 | 1.3 µM (≈ 0.552 µg/mL) |
| Cc1ccc2nc(C(F)(F)F)c(C(=O)NCc3ccc(C)o3)n2c1 | 4.4 µM (≈ 1.48 µg/mL) |
| O=C(Cc1ccc(Cl)cc1)Nc1nc(-c2ccccn2)cs1 | 4.3 µM (≈ 1.42 µg/mL) |
| CC(C)c1ccc2oc(-c3ccc(NC(=O)c4cccnc4)cc3)nc2c1 | 1.2 µM (≈ 0.429 µg/mL) |
| Clc1ccc2c(N3CCNCC3)ccnc2c1 | 6.5 µM (≈ 1.61 µg/mL) |
| CCc1c(C)nc(-n2nc(C)cc2NC(=O)C(CC)c2ccccc2)[nH]c1=O (configuration not stated) | 1.2 µM (≈ 0.455 µg/mL) |
| CC1CCC(NC(=O)Nc2ccc3snnc3c2)CC1 (configuration not stated) | 7 µM (≈ 2.03 µg/mL) |
| CC1CN(Cc2cccc(C(=O)NCc3ccc(F)c(-c4cccc(CN5CCN[C@@H](C)C5)c4)c3)c2)C(C)CN1 (some centres not stated) | 8.9 µM (≈ 4.84 µg/mL) |
| COc1ccc(C2CC(=O)N(Cc3cccc(F)c3)c3ccccc3S2)cc1OC (configuration not stated) | 5.9 µM (≈ 2.5 µg/mL) |
| O=C(NCc1cc(Cl)cc(Cl)c1)c1c(C(F)(F)F)nc2ccccn12 | 1.3 µM (≈ 0.505 µg/mL) |
| CCOc1ccccc1NC(=O)[C@H](Cc1ccccc1)NC(=O)c1cccs1 | 9.5 µM (≈ 3.75 µg/mL) |
| O=C(O)COCC(=O)NNC(=O)c1ccncc1 | 2.3 µM (≈ 0.582 µg/mL) |
| COc1ccc(-c2nnc(NC(=O)c3ccc(Br)s3)o2)cc1 | 7.6 µM (≈ 2.89 µg/mL) |
| O=C(C=Cc1cccs1)Nc1nc(-c2ccccn2)cs1 | 3.3 µM (≈ 1.03 µg/mL) |
| O=C(Nc1nc(-c2ccccn2)cs1)c1cccc(Oc2ccccc2)c1 | 3.4 µM (≈ 1.27 µg/mL) |
| Cc1cc(C)n(Cc2ccc(C(=O)NC3CCC(C(C)(C)C)CC3)cc2)n1 (configuration not stated) | 6.5 µM (≈ 2.39 µg/mL) |
| Clc1ccc(CCNc2cc(-c3ccccc3)nc3ncnn23)cc1 | 4 µM (≈ 1.4 µg/mL) |
| O=C(Nc1ccc(OC(F)(F)F)cc1)NC1CCCCC1 | 4.8 µM (≈ 1.45 µg/mL) |
| COc1ccc(OC)c(S(=O)(=O)Nc2ccc(Nc3ccccc3)cc2OC)c1 | 8.8 µM (≈ 3.65 µg/mL) |
| O=C(NNC(=O)c1cccs1)c1ccc(-c2cccc(C(F)(F)F)c2)o1 | 4.3 µM (≈ 1.64 µg/mL) |

| Compound | MIC90 |
| --- | --- |
| COc1ccc(C(=O)[C@H]2C[C@@H]2CN(Cc2ccccn2)Cc2ccccn2)cc1 | 7.7 µM (≈ 2.98 µg/mL) |
| Cc1cccc(-c2noc(CNC(=O)c3ccccc3CCc3ccccc3)n2)c1 | 6.1 µM (≈ 2.42 µg/mL) |
| CCc1c(C)nc(-c2cccc(C(F)(F)F)c2)nc1N1CCNCC1 | 8.6 µM (≈ 3.01 µg/mL) |
| O=S(=O)(c1ccc(Cl)cc1)N1CCC(n2nnc3cc(C(F)(F)F)ccc32)CC1 | 7.8 µM (≈ 3.47 µg/mL) |
| Cc1cc(=O)[nH]c(-n2nc(C)cc2NC(=O)C2(c3ccc(Cl)cc3)CCCC2)n1 | 1.3 µM (≈ 0.535 µg/mL) |
| O=C(CCCOc1ccccc1)Nc1nc(-c2ccccn2)cs1 | 5.4 µM (≈ 1.83 µg/mL) |
| Cc1ccc(S(=O)(=O)N2CCC(n3nnc4cc(C(F)(F)F)ccc43)CC2)cc1Cl | 9.3 µM (≈ 4.27 µg/mL) |
| O=C(C1CCN(c2nnc(-n3cccc3)s2)CC1)N1CCC(Cc2ccccc2)CC1 | 3.4 µM (≈ 1.48 µg/mL) |
| COc1ccc(S(=O)(=O)CC(=O)N(CCN(C)C)c2nc3c(C)ccc(Cl)c3s2)cc1 | 7 µM (≈ 3.37 µg/mL) |
| COc1cc(Cl)c(Cl)cc1C(=O)Nc1cccc2c1CCN(C)C2 | 4 µM (≈ 1.46 µg/mL) |
| Cc1ccc(-c2nnc(NC(=O)c3cccc(C(F)(F)F)c3)o2)c(C)c1 | 4.4 µM (≈ 1.59 µg/mL) |
| Cc1n[nH]c(C)c1S(=O)(=O)NCc1nc(NCCCc2ccccc2)c2ccccc2n1 | 5.9 µM (≈ 2.66 µg/mL) |
| COc1ccc(Nc2nc(CN3CCN(Cc4cc(=O)n5ccsc5n4)CC3)cs2)cc1 | 6 µM (≈ 2.81 µg/mL) |
| O=C(NC1CCN(Cc2ccccc2)C1)c1cccc(-c2ccc(Cl)cc2)c1 (configuration not stated) | 10 µM (≈ 3.91 µg/mL) |
| CCN(Cc1nc2ccccc2c(=O)[nH]1)C1CCCc2cccnc21 (configuration not stated) | 4.4 µM (≈ 1.47 µg/mL) |
| CNC(=O)c1cc(Nc2ncc(F)c(N(C)c3ccc4c(C)[nH]nc4c3)n2)cc(OCCCN)c1 | 7.9 µM (≈ 3.78 µg/mL) |
| CC(C)Sc1ccc(C(=O)Nc2nc(-c3ccccn3)cs2)cc1 | 1.2 µM (≈ 0.427 µg/mL) |
| CCOC(=O)c1c(-c2ccccc2)oc2ccc(O)c(CN3CCCC3)c12 | 3.9 µM (≈ 1.43 µg/mL) |
| CCc1c(C)sc2nc(C)nc(SCC(=O)NCc3ccccc3)c12 | 7.2 µM (≈ 2.68 µg/mL) |
| O=C(Nc1nc(-c2ccccn2)cs1)c1cc2c(s1)CCCC2 | 5.5 µM (≈ 1.88 µg/mL) |
| Cc1nc(-c2cccnc2)nc(N2CCCN(Cc3ccc(F)cc3)CC2)c1Cl | 5.5 µM (≈ 2.27 µg/mL) |
| Brc1c(-c2ccc3c(c2)OCO3)nc2ncccn12 | 2.4 µM (≈ 0.764 µg/mL) |
